# Reference: paper PMC7443318 (Journal of medicinal chemistry, 2020)
# Entries after “also recorded” stand apart in the source; their conditions may differ.
# How the values were obtained:
# [1] = biological target: translocator protein, TSPO (Rattus norvegicus, UniProt P16257); assay: Off-target radioligand binding, TSPO
# [2] = biological target: T1, mA3AR (Mus musculus, UniProt Q61618)
# T1 sequence (Q61618 1-319): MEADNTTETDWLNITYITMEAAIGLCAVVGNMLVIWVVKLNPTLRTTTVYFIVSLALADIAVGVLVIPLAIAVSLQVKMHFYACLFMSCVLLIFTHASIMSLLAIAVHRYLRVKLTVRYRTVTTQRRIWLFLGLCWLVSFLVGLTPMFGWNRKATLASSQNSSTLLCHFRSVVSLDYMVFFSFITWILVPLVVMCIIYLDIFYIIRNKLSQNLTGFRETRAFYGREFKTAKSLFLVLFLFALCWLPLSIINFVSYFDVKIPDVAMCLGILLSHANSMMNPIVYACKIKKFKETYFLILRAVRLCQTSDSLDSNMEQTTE
# [3] = test system: wild-type C57BL/6 (WT) or A3AR-KO mice; assay: Mouse model of A3AR-induced hypothermia; type: in vivo
# [4] = test system: 45 receptors, channels and transporters; assay: Off-target screen in radioligand binding assays; conditions: Table S1
# [5] = biological target: T2, hA3AR (Homo sapiens, UniProt P0DMS8)
# T2 sequence (P0DMS8 1-318): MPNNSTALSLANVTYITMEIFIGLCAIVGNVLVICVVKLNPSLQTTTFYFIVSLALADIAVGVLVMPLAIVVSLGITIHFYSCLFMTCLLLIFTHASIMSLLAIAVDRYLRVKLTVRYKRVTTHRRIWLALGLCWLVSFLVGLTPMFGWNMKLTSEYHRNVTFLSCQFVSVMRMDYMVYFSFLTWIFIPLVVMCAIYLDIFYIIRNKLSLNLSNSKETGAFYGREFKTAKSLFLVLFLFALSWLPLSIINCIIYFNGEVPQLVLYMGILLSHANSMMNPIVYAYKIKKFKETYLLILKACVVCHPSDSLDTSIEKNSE
# [6] = biological target: T2, hA3AR; conditions: fixed concentration of 15 (10 μM), Figure 1C
# translocator protein, TSPO, sequence (P16257 whole entry): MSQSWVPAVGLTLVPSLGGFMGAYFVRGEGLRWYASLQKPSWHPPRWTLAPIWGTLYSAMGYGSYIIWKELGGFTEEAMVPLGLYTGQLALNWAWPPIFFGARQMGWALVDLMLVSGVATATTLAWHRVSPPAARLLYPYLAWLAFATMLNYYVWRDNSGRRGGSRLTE
structure (smiles),measurement,setting,value
"O[C@@H]1[C@H](O)[C@@H]2C[C@@H]2[C@H]1n1cnc2c(NCCc3cccc(Cl)c3)nc(C#Cc3ccc(Cl)s3)nc21 [Compound 26, (1R,2R,3S,4R,5S)-4-(6-((3-Chlorophenethyl)amino)-2-((5-chlorothiophen-2-yl)ethynyl)-9H-purin-9-yl)bicyclo[3.1.0]hexane-2,3-diol]",Ki,[1],~350 nM
"Oc1ccc(CCNc2nc(C#Cc3ccccc3)nc3c2ncn3[C@H]2[C@H](O)[C@H](O)[C@@H]3C[C@@H]32)cc1 [Compound 10, (1R,2R,3S,4R,5S)-4-(6-((4-Hydroxyphenethyl)amino)-2-(phenylethynyl)-9H-purin-9-yl)bicyclo[3.1.0]hexane-2,3-diol]",increase of mA3AR affinity compared to 8,[2],6 fold
"COc1cc(CCNc2nc(C#Cc3ccccc3)nc3c2ncn3[C@H]2[C@H](O)[C@H](O)[C@@H]3C[C@@H]32)ccc1O [Compound 15, (1R,2R,3S,4R,5S)-4-(6-((4-Hydroxy-3-methoxyphenethyl)amino)-2-(phenylethynyl)-9H-purin-9-yl)bicyclo[3.1.0]hexane-2,3-diol]",Effect of pretreatment on hypothermic effect of full agonist 39,"[3]; 3 mg/kg or 10 mg/kg 15, 30 min prior to 39 (3 mg/kg)",did not significantly attenuate
same,Effect on core body temperature (Tb),"[3]; 3 mg/kg, i.p., WT mice (Figure 2B)",only weak hypothermia
same,Effect on core body temperature (Tb) in ADORA3−/− mice,"[3]; 10 mg/kg, i.p., ADORA3−/− mice, versus WT (Figure 2A)",greatly attenuated
same,Effect on core body temperature (Tb),"[3]; 10 mg/kg, i.p., wild-type C57BL/6 mice (Figure 2A)",lowered core body temperature
same,Period over which in vivo agonism was maintained,[3]; mouse,> 2 h
same,increase of mA3AR affinity compared to 8,[2],~ 27 fold
same,Interaction with other GPCRs,[4],did not interact
same,increase of hA3AR affinity compared to 8,[5],~ 2 fold
same,Antagonism of hA3AR activation by Cl-IB-MECA 38 in cAMP assay,[6],greatly inhibited the activation of hA3AR by Cl-IB-MECA; also recorded: shifted the concentration-response curve of Cl-IB-MECA 38 rightward
"CNC(=O)[C@@]12C[C@@H]1[C@@H](n1cnc3c(NCc4cccc(Cl)c4)nc(C#Cc4ccc(F)c(F)c4)nc31)[C@H](O)[C@@H]2O [Compound 39, (1S,2R,3S,4R,5S)-4-(6-((3-chlorobenzyl)amino)-2-((3,4-difluorophenyl)-ethynyl)-9H-purin-9-yl)-2,3-dihydroxy-N-methylbicyclo[3.1.0]hexane-1-carboxamide, reference compound]",Hypothermic effect,"[3]; 3 mg/kg, mice",pronounced hypothermic effect
"O[C@@H]1[C@H](O)[C@@H]2C[C@@H]2[C@H]1n1cnc2c(N[C@H]3C[C@@H]3c3ccccc3)nc(C#Cc3ccc(Cl)s3)nc21 [Compound 31, (1R,2R,3S,4R,5S)-4-(2-((5-Chlorothiophen-2-yl)ethynyl)-6-(((1S,2R)-2-phenylcyclopropyl)amino)-9H-purin-9-yl)bicyclo[3.1.0]hexane-2,3-diol]",reduction of hA3AR affinity by cyclopropyl constraint of the N6-2-phenylethyl moiety,[5]; compared to N6-2-phenylethyl analogue,~ 10 fold
"COc1cc(CCNc2nc(C#Cc3ccc(Cl)s3)nc3c2ncn3[C@H]2[C@H](O)[C@H](O)[C@@H]3C[C@@H]32)ccc1O [Compound 29, (1R,2R,3S,4R,5S)-4-(2-((5-Chlorothiophen-2-yl)ethynyl)-6-((4-hydroxy-3-methoxyphenethyl)amino)-9H-purin-9-yl)bicyclo[3.1.0]hexane-2,3-diol]",reduction of mA3AR affinity compared to 15,[2],4 fold
"COc1ccc(CCNc2nc(C#Cc3ccccc3)nc3c2ncn3[C@H]2[C@H](O)[C@H](O)[C@@H]3C[C@@H]32)cc1O [Compound 14, (1R,2R,3S,4R,5S)-4-(6-((3-Hydroxy-4-methoxyphenethyl)amino)-2-(phenylethynyl)-9H-purin-9-yl)bicyclo[3.1.0]hexane-2,3-diol]",reduction of mA3AR affinity compared to 15,[2],7 fold
"Oc1ccc(CCNc2nc(C#Cc3ccccc3)nc3c2ncn3[C@H]2[C@H](O)[C@H](O)[C@@H]3C[C@@H]32)cc1F [Compound 11, (1R,2R,3S,4R,5S)-4-(6-((3-Fluoro-4-hydroxyphenethyl)amino)-2-(phenylethynyl)-9H-purin-9-yl)bicyclo[3.1.0]hexane-2,3-diol]",increase of hA3AR affinity compared to 8,[5],2 fold
